Experiment [1] concerns the target T1, KDM4C (JMJD2C) (Homo sapiens, UniProt Q9H3R0).
T1 sequence (Q9H3R0 1-349): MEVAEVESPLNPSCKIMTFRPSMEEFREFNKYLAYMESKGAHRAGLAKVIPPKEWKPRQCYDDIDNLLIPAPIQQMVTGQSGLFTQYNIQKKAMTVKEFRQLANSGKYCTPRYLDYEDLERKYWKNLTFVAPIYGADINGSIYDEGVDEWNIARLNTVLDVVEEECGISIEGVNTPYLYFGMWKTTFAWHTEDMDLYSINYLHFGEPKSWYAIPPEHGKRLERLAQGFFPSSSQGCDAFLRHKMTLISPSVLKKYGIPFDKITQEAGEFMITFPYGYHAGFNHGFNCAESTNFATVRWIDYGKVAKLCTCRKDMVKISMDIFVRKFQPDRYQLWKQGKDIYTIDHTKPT
In words: Histone lysine demethylase AlphaLISA assay, KDM4C. The following applies: read-out: KDM4C HDME Inhibition IC50. Format: biochemical. The essentials:
(§1)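 Enzyme 10 min pre-incubation; + compound (3% DMSO soln) 10 min; + biotin-H3 methyl-Lys peptide, 25 μM L-Asc, 10 μM α-KG, RT. Read: AlphaLISA acceptor beads, then streptavidin donor beads, RT, dark.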
On the technique in general: Bead proximity is the source of the signal in Alpha formats.

Experiment [2] has as its target T2, KDM5C (JARID1C) (Homo sapiens, UniProt P41229).
T2 construct: 2-1560; purchased BPS; host or cells: Bac (baculovirus system)
Description: Histone lysine demethylase AlphaLISA assay, KDM5C. Format: biochemical. The conditions noted are these: read-out: KDM5C HDME Inhibition IC50. The essentials: as §1

For experiment [3], the target named is T3, KDM7 (PHF8) (Homo sapiens, UniProt Q9UPP1).
T3 construct: KDM7 (PHF8); BRIC; 1-1322; Bac
T3 sequence (Q9UPP1 37-440 limits assumed): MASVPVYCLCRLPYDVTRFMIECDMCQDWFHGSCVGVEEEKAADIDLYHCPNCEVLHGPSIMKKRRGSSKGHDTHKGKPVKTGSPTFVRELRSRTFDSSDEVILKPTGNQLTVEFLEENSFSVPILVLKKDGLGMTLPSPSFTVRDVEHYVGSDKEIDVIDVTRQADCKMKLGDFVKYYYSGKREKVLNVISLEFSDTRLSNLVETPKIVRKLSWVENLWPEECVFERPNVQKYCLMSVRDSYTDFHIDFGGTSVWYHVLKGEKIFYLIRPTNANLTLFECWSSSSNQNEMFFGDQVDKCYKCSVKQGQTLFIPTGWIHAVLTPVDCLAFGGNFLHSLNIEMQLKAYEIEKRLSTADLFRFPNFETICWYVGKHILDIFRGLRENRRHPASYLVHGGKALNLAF
Description: Histone lysine demethylase AlphaLISA assay, KDM7. Format: biochemical. The conditions noted are these: read-out: PHF8 HDME Inhibition IC50. Put shortly: as §1

In experiment [4] the target is T4, KDM4C (Homo sapiens, UniProt Q9H3R0).
T4 construct: Full length; host or cells: U2OS
T4 sequence (Q9H3R0 1-1056): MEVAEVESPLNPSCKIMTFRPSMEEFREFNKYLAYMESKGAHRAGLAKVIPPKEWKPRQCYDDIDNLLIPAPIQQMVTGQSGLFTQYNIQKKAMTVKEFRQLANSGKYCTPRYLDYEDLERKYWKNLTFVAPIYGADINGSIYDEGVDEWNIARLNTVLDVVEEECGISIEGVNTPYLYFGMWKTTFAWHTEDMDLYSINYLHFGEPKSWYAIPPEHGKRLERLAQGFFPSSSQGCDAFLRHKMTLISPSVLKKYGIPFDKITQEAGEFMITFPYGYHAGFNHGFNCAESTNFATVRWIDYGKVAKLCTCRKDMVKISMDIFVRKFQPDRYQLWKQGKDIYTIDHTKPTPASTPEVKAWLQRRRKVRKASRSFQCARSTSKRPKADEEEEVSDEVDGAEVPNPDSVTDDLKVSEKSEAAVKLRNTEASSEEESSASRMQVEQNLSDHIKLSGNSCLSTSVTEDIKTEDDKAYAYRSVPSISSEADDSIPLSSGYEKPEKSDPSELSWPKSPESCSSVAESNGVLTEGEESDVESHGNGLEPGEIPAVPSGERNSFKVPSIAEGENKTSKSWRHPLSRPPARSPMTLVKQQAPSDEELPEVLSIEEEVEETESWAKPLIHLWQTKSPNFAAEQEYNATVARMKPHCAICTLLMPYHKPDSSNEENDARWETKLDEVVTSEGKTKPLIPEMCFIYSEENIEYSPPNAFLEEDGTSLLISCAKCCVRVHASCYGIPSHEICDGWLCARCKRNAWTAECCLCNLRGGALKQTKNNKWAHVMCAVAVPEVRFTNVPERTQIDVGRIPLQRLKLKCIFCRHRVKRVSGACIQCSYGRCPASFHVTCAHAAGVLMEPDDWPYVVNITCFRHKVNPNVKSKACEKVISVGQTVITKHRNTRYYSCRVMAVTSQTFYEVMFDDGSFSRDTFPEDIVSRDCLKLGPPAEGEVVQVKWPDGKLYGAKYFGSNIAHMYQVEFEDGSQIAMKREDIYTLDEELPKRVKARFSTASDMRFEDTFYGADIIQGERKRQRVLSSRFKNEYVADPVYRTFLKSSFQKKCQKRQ
In words: Histone lysine demethylase immunofluorescence assay, U2OS cells transfected with KDM4C. The format is cell-based. The following applies: U2OS cells transfected with pCMVHA KDM4C; mark detected H3K9me3; 20 hours. The essentials:
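U2OS cells were transiently transfected with HA-tagged demethylase and reseeded after 6 h into compound-containing DMEM/10% FBS for 20 h. Cells were fixed in formaldehyde and immunostained for HA and the relevant histone methyl mark, then imaged. IC50 is based on mean mark staining in HA+ transfected cells.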

pIC50: −log10 of the molar value.

The record followed here is patent publication US9650339B2, “Inhibitors of histone demethylases” (Gilead Sciences, Inc., priority 2013, dated 2017).

T2 sequence (P41229 2-1560): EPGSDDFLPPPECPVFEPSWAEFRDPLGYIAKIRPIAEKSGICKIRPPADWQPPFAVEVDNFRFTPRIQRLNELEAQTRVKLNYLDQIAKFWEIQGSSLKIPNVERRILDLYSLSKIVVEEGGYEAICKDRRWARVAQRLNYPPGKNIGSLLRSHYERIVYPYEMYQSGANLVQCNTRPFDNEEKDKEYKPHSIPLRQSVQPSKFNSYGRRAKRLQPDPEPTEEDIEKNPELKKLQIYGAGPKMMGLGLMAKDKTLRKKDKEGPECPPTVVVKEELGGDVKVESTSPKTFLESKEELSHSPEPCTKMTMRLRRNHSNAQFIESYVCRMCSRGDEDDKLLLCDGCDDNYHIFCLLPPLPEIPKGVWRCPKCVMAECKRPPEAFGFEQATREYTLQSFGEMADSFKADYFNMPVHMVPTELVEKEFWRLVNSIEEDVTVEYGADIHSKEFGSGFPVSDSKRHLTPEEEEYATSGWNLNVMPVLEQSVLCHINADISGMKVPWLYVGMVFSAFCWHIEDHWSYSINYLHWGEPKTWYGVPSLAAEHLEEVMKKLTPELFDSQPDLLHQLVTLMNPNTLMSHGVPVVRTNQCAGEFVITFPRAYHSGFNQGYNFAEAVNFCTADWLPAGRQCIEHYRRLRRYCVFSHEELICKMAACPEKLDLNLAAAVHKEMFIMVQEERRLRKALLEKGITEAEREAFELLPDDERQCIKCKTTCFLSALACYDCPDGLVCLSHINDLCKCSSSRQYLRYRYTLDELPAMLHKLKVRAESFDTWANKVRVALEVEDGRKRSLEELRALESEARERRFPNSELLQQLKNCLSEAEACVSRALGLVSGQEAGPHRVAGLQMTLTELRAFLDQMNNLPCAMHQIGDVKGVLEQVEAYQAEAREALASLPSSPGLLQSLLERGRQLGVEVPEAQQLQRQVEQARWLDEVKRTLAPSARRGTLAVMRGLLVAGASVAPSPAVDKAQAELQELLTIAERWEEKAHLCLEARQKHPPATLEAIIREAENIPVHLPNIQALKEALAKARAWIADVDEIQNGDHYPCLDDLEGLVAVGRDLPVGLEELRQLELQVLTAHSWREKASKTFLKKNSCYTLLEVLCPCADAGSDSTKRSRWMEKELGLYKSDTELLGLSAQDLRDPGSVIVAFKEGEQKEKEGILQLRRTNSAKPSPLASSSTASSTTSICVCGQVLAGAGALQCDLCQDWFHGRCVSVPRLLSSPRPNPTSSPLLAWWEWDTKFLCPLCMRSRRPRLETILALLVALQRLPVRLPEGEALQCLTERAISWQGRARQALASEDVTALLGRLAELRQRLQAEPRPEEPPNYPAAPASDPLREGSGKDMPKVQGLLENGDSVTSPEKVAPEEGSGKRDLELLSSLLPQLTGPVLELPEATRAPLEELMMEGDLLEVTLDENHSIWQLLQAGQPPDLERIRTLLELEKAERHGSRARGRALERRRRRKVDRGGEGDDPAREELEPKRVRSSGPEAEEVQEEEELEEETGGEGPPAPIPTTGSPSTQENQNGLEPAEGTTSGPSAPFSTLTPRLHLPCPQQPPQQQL

As to `N#CCNCc1ccnc(CNCCCCN(Cc2ccccc2)C2CC2)c1` [Compound 23, 2-[({2-[({4-[benzyl(cyclopropyl)-amino]butyl}amino)-methyl]pyridin-4-yl}methyl)amino]-acetonitrile], the negative logarithm of the IC50 (pIC50) (commonly −log10 of the IC50, conventionally taken in molar units) in experiment [1] is under 5.60; in experiment [2] it was over 6.60; in experiment [3] it was under 5.60; in experiment [4], under 5.60.
Regarding `CCN(CC)CCCCNCc1cc(C=O)ccn1` [Compound 107, 2-({[4-(diethylamino)-butyl]amino}-methyl)pyridine-4-carbaldehyde], the pIC50 is under 5.60 in experiment [1], over 6.60 in experiment [2], under 5.60 in experiment [3] and 5.60 to 6.60 in experiment [4].
On to `CN(C)C(=O)CNCc1cc(/C=N\C2CC2)ccn1` [Compound 33], for which the pIC50 was over 6.60 in experiment [1], over 6.60 in experiment [2], under 5.60 in experiment [3] and 5.60 to 6.60 in experiment [4].
Turning to `CCN(CCN(C)C)C(=O)CNCc1cc(/C=N/CCC2CCCCC2)ccn1` [Compound 63, 2-[({4-[[(2-cydohexylethyl)-imino]methyl]pyridin-2-yl}methyl)amino]-N-[2-(dimethylamino)-ethyl]-N-ethylacetamide], the pIC50 in experiment [1] is over 6.60; in experiment [2], over 6.60; in experiment [3] it was under 5.60; in experiment [4], 5.60 to 6.60.
Take `CCN(CCN(C)C)C(=O)CNCc1cc(CN)ccn1` [Compound 4, 2-({[4-(aminomethyl)pyridin-2-yl]methyl}amino)-N-[2-(dimethylamino)ethyl]-N-ethylacetamide]: the pIC50 in experiment [1] was 5.60 to 6.60; in experiment [2], over 6.60; in experiment [3], 5.60 to 6.60; in experiment [4] it was 5.60 to 6.60.
For the molecule `CN(C)CCCCNCc1cc(/C=N\C2CC2)ccn1` [Compound 45, N-{[2-({[4-(dimethylamino)butyl]-amino}methyl)-pyridin-4-yl]methylidene}-cyclopropanamine], the pIC50 is under 5.60 in experiment [1], over 6.60 in experiment [2], under 5.60 in experiment [3] and 5.60 to 6.60 in experiment [4].
Take `CN1CCCC1CCNCc1cc(/C=N/C2CC2)ccn1` (stereo not drawn) [Compound 40, N-{[2-({[2-(l-methylpyrrolidin-2-yl)ethyl]amino}methyl)-pyridin-4-yl]methylidene}-cyclopropanamine]: the pIC50 is under 5.60 in experiment [1], over 6.60 in experiment [2], under 5.60 in experiment [3] and 5.60 to 6.60 in experiment [4].
`CN(C)C(=O)CNCc1cc(/C=N/CCCc2ccccc2)ccn1` [Compound 34, N,N-dimethyl-2-[({4-[[(3-phenylpropyl)imino]-methyl]pyridin-2-yl}methyl)amino]-acetamide]: the pIC50 was 5.60 to 6.60 in experiment [1], over 6.60 in experiment [2], under 5.60 in experiment [3] and under 5.60 in experiment [4].
`O=Cc1ccnc(CNCCCN2CCCC2)c1` [Compound 111, 2-({[3-(pyrrolidin-1-yl)propyl]amino}-methyl)pyridine-4-carbaldehyde]: the pIC50 in experiment [1] is under 5.60; in experiment [2], over 6.60; in experiment [3] it was under 5.60; in experiment [4], under 5.60.
Regarding `CCN(CC)CCCCN(Cc1cc(C=O)ccn1)C(=O)C(F)(F)F` [Compound 115, N-[4-(diethylamino)butyl]-2,2,2-trifluoro-N-[(4-formylpyridin-2-yl)methyl]acetamide], the pIC50 in experiment [1] was under 5.60; in experiment [2] it was over 6.60; in experiment [3] it was 5.60 to 6.60; in experiment [4], 5.60 to 6.60.
For `CCN(CC)CCCCNC(=O)CNCc1cc(C=O)ccn1` [Compound 112, N-[4-(diethylamino)-butyl]-2-{[(4-formylpyridin-2-yl)methyl]amino}-acetamide], the negative logarithm of the IC50 (pIC50) is 5.60 to 6.60 in experiment [1], over 6.60 in experiment [2], over 6.60 in experiment [3] and under 5.60 in experiment [4].
For `CNCc1ccnc(CNCCCN(C)Cc2ccccc2)c1` [Compound 17, benzyl(methyl){3-[({4-[(methylamino)methyl]-pyridin-2-yl)methyl)-amino]propyl}-amine], the pIC50 is 5.60 to 6.60 in experiment [1], over 6.60 in experiment [2], under 5.60 in experiment [3] and under 5.60 in experiment [4].
Consider `CCSCCNCc1cc(/C=N/C2CC2)ccn1` [Compound 39, N-{[2-({[2-(ethylsulfanyl)-ethyl]amino}methyl)pyridin-4-yl]methylidene}-cyclopropanamine], for which the pIC50 in experiment [1] was under 5.60; in experiment [2], over 6.60; in experiment [3], over 6.60; in experiment [4], under 5.60.
With `CCN1CCCC1CNC(=O)CNCc1cc(/C=N/C2CC2)ccn1` (stereo not drawn) [Compound 51, 2-[({4-[N-cyclopropyl-carboximidoyl]-pyridin-2-yl}methyl)-amino]-N-[(1-ethylpyrrolidin-2-yl)methyl]acetamide], the negative-log IC50 (pIC50) in experiment [1] was under 5.60; in experiment [2], over 6.60; in experiment [3], 5.60 to 6.60; in experiment [4] it was under 5.60.
`CCN(CCN(C)C)C(=O)CNCc1cc(/C=N/CCO)ccn1` [Compound 66]: the pIC50 in experiment [1] is over 6.60; in experiment [2], over 6.60; in experiment [3], 5.60 to 6.60; in experiment [4], 5.60 to 6.60.
`O=C(CNCc1cc(/C=N/C2CC2)ccn1)N1CCC(Cc2ccccc2)CC1` [Compound 55, 1-(4-benzylpiperidin-1-yl)-2-[({4-[N-cyclopropyl-carboximidoyl]-pyridin-2-yl}methyl)amino]-ethan-1-one]: the pIC50 is 5.60 to 6.60 in experiment [1], 5.60 to 6.60 in experiment [2], 5.60 to 6.60 in experiment [3] and under 5.60 in experiment [4].
Consider `CCN(CC)CCCCNCc1cc(/C=N/CCO)ccn1` [Compound 61, 2-[{[2-({[4-(diethylamino)-butyl]amino}-methyl)pyridin-4-yl]methylidene}-amino]ethan-1-ol], for which the pIC50 in experiment [1] was 5.60 to 6.60; in experiment [2], over 6.60; in experiment [3], under 5.60; in experiment [4] it was 5.60 to 6.60.
With `CCN(CC)CCCCNCc1cc(CNC(=O)C(F)(F)F)ccn1` [Compound 1, N-{[2-({[4-(diethylamino)butyl]-amino}methyl)pyridin-4-yl]methyl}-2,2,2-trifluoroacetamide], the pIC50 in experiment [1] is under 5.60; in experiment [2], 5.60 to 6.60; in experiment [3], 5.60 to 6.60; in experiment [4] it was 5.60 to 6.60.
